Results reported in patent US20230365563A1, “QUINAZOLINE COMPOUND AND APPLICATION THEREOF” (SHANGHAI PHARMACEUTICALS HOLDING CO., LTD., priority 2020, published 2023).
Counter-ions that a name gives are not always drawn.

How the values were obtained:
[1] = target: T1, KRAS-G12D and SOS1 (Homo sapiens, UniProt P01116, G12D); test: Inhibition of KRAS-G12D/SOS1 binding (Cisbio binding kit, 665/615 ratio), Effect Embodiment A; conditions: read-out: GTP-KRAS-G12D:SOS1 IC50
T1 construct: purchased
Procedure, shortened: (§1)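 Compounds are tested over eleven threefold dilution steps in duplicate, with final DMSO at 1%.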

[2] = target: T2, KRAS_G12D and cRAF (Homo sapiens, UniProt P01116, G12D); test: Inhibition of KRAS_G12D/cRAF binding (Cisbio binding kit, 665/615 ratio), Effect Embodiment B; conditions: read-out: GTP-KRAS-G12D:CRAF IC50
T2 construct: purchased
T2 sequence (P01116 1-188 isoform P01116-2 G12D): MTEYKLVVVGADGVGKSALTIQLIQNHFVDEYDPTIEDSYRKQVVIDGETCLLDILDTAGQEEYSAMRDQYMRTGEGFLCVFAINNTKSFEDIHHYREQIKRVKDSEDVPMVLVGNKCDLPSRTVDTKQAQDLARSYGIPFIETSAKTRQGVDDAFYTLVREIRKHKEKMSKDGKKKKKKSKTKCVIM
Procedure, shortened: as §1

[3] = target: T3, KRAS_WT and SOS1 (Homo sapiens, UniProt P01116); test: Inhibition of KRAS_WT/SOS1 binding (Cisbio binding kit, 665/615 ratio), Effect Embodiment C; conditions: read-out: GTP-KRAS-WT:SOS1 IC50
T3 construct: purchased
T3 sequence (P01116 1-188 isoform P01116-2): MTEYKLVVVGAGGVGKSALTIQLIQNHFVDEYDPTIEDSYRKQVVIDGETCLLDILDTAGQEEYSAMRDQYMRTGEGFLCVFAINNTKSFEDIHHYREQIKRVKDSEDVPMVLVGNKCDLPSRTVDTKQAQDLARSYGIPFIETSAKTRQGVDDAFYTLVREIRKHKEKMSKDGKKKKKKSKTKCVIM
Procedure, shortened: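 Compounds tested as 3-fold, 11-point dilutions in duplicate at 1% DMSO final against the KRAS_WT/SOS1 binding system. IC50 derived by nonlinear regression fit.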

T1 sequence (P01116 1-188 isoform P01116-2 G12D): as the sequence (P01116 1-188 isoform P01116-2 G12D) above

Compound | IC50 [1] | IC50 [2] | IC50 [3]
CN1CC2(CC2)C[C@H]1COc1nc(N2C[C@H]3CC[C@@H](C2)N3)c2cc(Cl)c(-c3cc(O)cc4ccccc34)c(F)c2n1 (single isomer, unassigned) [Compound 167, (R or S)-4-(4-((1R,5S)-3,8-diazabicyclo[3.2.1]octan-3-yl)-6-chloro-8-fluoro-2-(((S)-5-methyl-5-azaspiro[2.4]heptan-6-yl)methoxy)quinazolin-7-yl)naphthalen-2-ol dihydrochloride] | 0.0179 µM | 0.0195 µM | 0.248 µM
CN1C[C@H](F)C[C@H]1COc1nc(N2CC3CCC(C2)N3)c2cc(Cl)c(-c3cc(O)cc4ccccc34)c(F)c2n1 (single isomer, unassigned) [Compound 168, (R or S)-4-(4-((1R,5S)-3,8-diazabicyclo[3.2.1]octan-3-yl)-6-chloro-8-fluoro-2-((2S,4R)-4-fluoro-1-methylpyrrolidin-2-yl)methoxy)quinazolin-7-yl)naphthalenol dihydrochloride] | 0.0187 µM | 0.0224 µM | 0.458 µM
Oc1cc(-c2c(Cl)cc3c(N4C[C@H]5CC[C@@H](C4)N5)nc(OCCCN4C[C@H]5C[C@@H]4CO5)nc3c2F)c2ccccc2c1 (single isomer, unassigned) [Compound 169, (R or S)-4-(2-(3-((1R,4R)-2-oxa-5-azabicyclo[2.2.1]heptan-5-yl)propoxy)-4-((1R,5S)-3,8-diazabicyclo[3.2.1]octan-3-yl)-6-chloro-8-fluoroquinazolin-7-yl)naphthalen-2-ol dihydrochloride] | 0.0392 µM | 0.0713 µM | 1.87 µM
CN1CCC[C@H]1COc1nc(N2CC3CCC(C2)N3)c2cc(Cl)c(-c3cc(O)cc4ccccc34)c(F)c2n1 (single isomer, unassigned) [Compound 170, (R or S)-4-(4-((1R,5S)-3,8-diazabicyclo[3.2.1]octan-3-yl)-6-chloro-8-fluoro-2-((S)-1-methylpyrrolidin-2-yl)methoxy)quinazolin-7-yl)naphthalen-2-ol dihydrochloride] | 0.0128 µM | 0.0244 µM | 0.27 µM
C[C@@H]1C[C@@H](COc2nc(N3CC4CCC(C3)N4)c3cc(Cl)c(-c4cc(O)cc5ccccc45)c(F)c3n2)N(C)C1 (single isomer, unassigned) [Compound 171, (R or S)-4-(4-((1R,5S)-3,8-diazabicyclo[3.2.1]octan-3-yl)-6-chloro-2-((2S,4R)-1.4-dimethylpyrrolidin-2-yl)methoxy)-8-fluoroquinazolin-7-yl)naphthalen-2-ol dihydrochloride] | 0.0248 µM | 0.0604 µM | 0.395 µM
Oc1cc(-c2c(Cl)cc3c(N4CC5CCC(C4)N5)nc(OCC4(CN5C6CCC5COC6)CCC4)nc3c2F)c2ccccc2c1 (single isomer, unassigned) [Compound 173, (4R or S)-4-(2-((1-((3-oxa-8-azabicyclo[3.2.1]octan-8-yl)methyl)cyclobutyl)methoxy)-4-((1R,5S)-3,8-diazabicyclo[3.2.1]octan-3-yl)-6-chloro-8-fluoroquinazolin-7-yl)naphthalen-2-ol dihydrochloride] | 0.0148 µM | 0.0379 µM | 0.251 µM
C[C@H]1COCCN1CCCOc1nc(N2C[C@H]3CC[C@@H](C2)N3)c2cc(Cl)c(-c3cc(O)cc4ccccc34)c(F)c2n1 (single isomer, unassigned) [Compound 174, (R or S)-4-(4-((1R,5S)-3,8-diazabicyclo[3.2.1]octan-3-yl)-6-chloro-8-fluoro-2-(3-((S)-3-methylmorpholinyl)propoxy)quinazolin-7-yl)naphthalen-2-ol diformate] | 0.0578 µM | 0.17 µM | 1.82 µM
C[C@@H]1COC[C@H](C)N1CCCOc1nc(N2CC3CCC(C2)N3)c2cc(Cl)c(-c3cc(O)cc4ccccc34)c(F)c2n1 (single isomer, unassigned) [Compound 175, (R or S)-4-(4-((1R,5S)-3,8-diazabicyclo[3.2.1]octan-3-yl)-6-chloro-2-(3-((3R,5S)-3,5-dimethylmorpholinyl)propoxy)-8-fluoroquinazolin-7-yl)naphthalen-2-ol formate] | 0.104 µM | 0.303 µM | 4.3 µM
Oc1cc(-c2c(Cl)cc3c(N4CC5CCC(C4)N5)nc(OC[C@@]45CCCN4C[C@H](F)C5)nc3c2F)c2ccccc2c1 (single isomer, unassigned) [Compound 176, 4-((R or S)-4-((1R,5S)-3,8-diazabicyclo[3.2.1]octan-3-yl)-6-chloro-8-fluoro-2-((2R,7aS)-2-fluorotetrahydro-1H-pyrrolin-7a(5H)-yl)methoxy)quinazolin-7-yl)naphthalenol formate] | 0.0136 µM | 0.00698 µM | 0.028 µM
Oc1cc(-c2c(Cl)cc3c(N4CC5CCC(C4)N5)nc(OCCCN4C5CCCC4COC5)nc3c2F)c2ccccc2c1 (single isomer, unassigned) [Compound 177, (R or S)-4-(2-(3-((1R,5S)-3-oxa-9-azabicyclo[3.3.1]nonan-9-yl)propoxy)-4-((1R,5S)-3,8-diazabicyclo[3.2.1]octan-3-yl)-6-chloro-8-fluoroquinazolin-7-yl)naphthalen-2-ol formate] | 0.0405 µM | 0.121 µM | 1.19 µM
CC(COc1nc(N2CC3CCC(C2)N3)c2cc(Cl)c(-c3cc(O)cc4ccccc34)c(F)c2n1)CN1C2CCC1COC2 (single isomer, unassigned) [Compound 178a, 4-((7R or 7S)-2-((2R or 2S)-3-(3-oxa-8-azabicyclo[3.2.1]octan-8-yl)-2-methylpropoxy)-4-((1R,5S)-3,8-diazabicyclo[3.2.1]octan-3-yl)-6-chloro-8-fluoroquinazolin-7-yl)naphthalen-2-ol diformate] | 0.0216 µM | 0.0181 µM | 0.836 µM
CC(COc1nc(N2CC3CCC(C2)N3)c2cc(Cl)c(-c3cc(O)cc4ccccc34)c(F)c2n1)CN1C2CCC1COC2 (single isomer, unassigned) [Compound 178b, 4-((7R or 7S)-2-((2S or 2R)-3-(3-oxa-8-azabicyclo[3.2.1]octan-8-yl)-2-methylpropoxy)-4-((1R,5S)-3,8-diazabicyclo[3.2.1]octan-3-yl)-6-chloro-8-fluoroquinazolin-7-yl)naphthalen-2-ol dicarboxylate] | 0.0397 µM | 0.15 µM | 1.05 µM
Oc1cc(-c2c(Cl)cc3c(N4CC5CCC(C4)N5)nc(OCC(F)CN4C5CCC4COC5)nc3c2F)c2ccccc2c1 (single isomer, unassigned) [Compound 179b, ((4R or 4S)-4-(2-((2S or 2R)-3-(3-oxa-8-azabicyclo[3.2.1]octan-8-yl)-2-fluoropropoxy)-4-((1R,5S)-3,8-diazabicyclo[3.2.1]octan-3-yl)-6-chloro-8-fluoroquinazolin-7-yl)naphthalen-2-ol diformate] | 0.06 µM | 0.134 µM | 5.4 µM
C[C@H]1COC[C@H](C)N1CCCOc1nc(N2CC3CCC(C2)N3)c2cc(Cl)c(-c3cc(O)cc4ccccc34)c(F)c2n1 (single isomer, unassigned) [Compound 180, 4-((R or S)-4-((1R,5S)-3,8-diazabicyclo[3.2.1]octan-3-yl)-6-chloro-2-(3-((3S,5S)-3,5-dimethylmorpholinyl)propoxy)-8-fluoroquinazolin-7-yl)naphthalen-2-ol diformate] | 0.0873 µM | 0.256 µM | 3.93 µM
C[C@@H]1COCCN1CCCOc1nc(N2C[C@H]3CC[C@@H](C2)N3)c2cc(Cl)c(-c3cc(O)cc4ccccc34)c(F)c2n1 (single isomer, unassigned) [Compound 181, (R or S)-4-(4-((1R,5S)-3,8-diazabicyclo[3.2.1]octan-3-yl)-6-chloro-8-fluoro-2-(3-((R)-3-methylmorpholinyl)propoxy)quinazolin-7-yl)naphthalen-2-ol diformate] | 0.0381 µM | 0.136 µM | 3.09 µM
CO[C@@H](COc1nc(N2CC3CCC(C2)N3)c2cc(Cl)c(-c3cc(O)cc4ccccc34)c(F)c2n1)CN1C2CCC1COC2 (single isomer, unassigned) [Compound 182, (4R or S)-4-(2-((2R)-3-(3-oxa-8-azabicyclo[3.2.1]octan-8-yl)-2-methoxypropoxy)-4-((1R,5S)-3,8-diazabicyclo[3.2.1]octan-3-yl)-6-chloro-8-fluoroquinazolin-7-yl)naphthalen-2-ol diformate] | 0.0533 µM | 0.219 µM | 3.4 µM
CN1C[C@@H]2C[C@@H]2[C@H]1COc1nc(N2CC3CCC(C2)N3)c2cc(Cl)c(-c3cc(O)cc4ccccc34)c(F)c2n1 (single isomer, unassigned) [Compound 183, 4-((R or S)-4-((1R,5S)-3,8-diazabicyclo[3.2.1]octan-3-yl)-6-chloro-8-fluoro-2-((1S,2S,5R)-3-methyl-3-azabicyclo[3.1.0]hexan-2-yl)methoxy)quinazolin-7-yl)naphthalen-2-ol diformate] | 0.0292 µM | 0.0889 µM | 1.51 µM
CN(C)CC1(COc2nc(N3CC4CCC(C3)N4)c3cc(Cl)c(-c4cc(O)cc5ccccc45)c(F)c3n2)CC1 (single isomer, unassigned) [Compound 186, 4-((R or S)-4-((1R,5S)-3,8-diazabicyclo[3.2.1]octan-3-yl)-6-chloro-2-((1-((dimethylamino)methyl)cyclopropyl)methoxy)-8-fluoroquinazolin-7-yl)naphthalen-2-ol diformate] | 0.0169 µM | 0.0181 µM | 0.233 µM
